From patent US9273043B2, “TRPV1 antagonists including dihydroxy substituent and uses thereof” (Purdue Pharma L.P., priority 2011, dated 2016) come the findings set out here.

In test [1] the target is T1, human TRPV1 (Homo sapiens (Human), UniProt Q8NER1). As to the kind of experiment: Capsaicin-based assay, Protocol 2, TRPV1/CHO cells (hCAP-CHO), Fluo-4 FLIPR. It counts as cell-based. The conditions noted are these: 100 nM capsaicin, mean ± SEM. An excerpt: The TRPV1/CHO cell line was generated as described below. […] The resulting PCR products were purified from agarose gels using Gel Band Purification Kit (GE Healthcare Bioscience) and were subcloned into pCR-Blunt vector (Invitrogen). The cloned cDNA was fully sequenced using a fluorescent dye-terminator reagent (BigDye Terminator ver3.1 Cycle Sequencing Kit, Applied Biosystems) and ABI Prism 3100 genetic analyzer (Applied Biosystems). The pCR-Blunt vector containing the hTRPV1 cDNA was subjected to restriction digestion with EcoR1. The restriction fragment was subcloned into expression vector pcDNA3.1(-) (Invitrogen) and named pcDNA3.1(-)-hVR1 plasmid. The sequence of the cDNA encoding TRPV1 is available at GenBank accession number AJ277028. […] The cells were transfected with the pcDNA3.1(-)-hVR1 plasmid using FuGENE6 (Roche) according to the manufacturer's protocol. 24 hr after transfection, neomycin-resistant cells were selected using 1 mg/mL G418 (Nacalai Tesque). […] The cells expressing hTRPV1 were cultured in the growth medium supplemented with 1 mg/mL G418. […] Capsaicin-based Assay: […] Subsequently, the cells were loaded by incubation in 0.1 mL of wash buffer containing Fluo-4 at 3 μM final concentration. After 1 hour, the cells were washed twice with 0.2 mL wash buffer and resuspended in 0.1 mL wash buffer. The plates were then transferred to a Fluorescence Imaging Plate Reader (Molecular Devices). Fluorescence intensity was monitored for 15 seconds to establish a baseline. […] The final concentration of the compound was adjusted to range from 100 μM to 1.5625 μM. […] Data were collected over the entire time course and analyzed using Excel and the curve-fitting formula GraphPad Prism.
T1 sequence (Q8NER1 whole entry, looked up, the tested form may be a part): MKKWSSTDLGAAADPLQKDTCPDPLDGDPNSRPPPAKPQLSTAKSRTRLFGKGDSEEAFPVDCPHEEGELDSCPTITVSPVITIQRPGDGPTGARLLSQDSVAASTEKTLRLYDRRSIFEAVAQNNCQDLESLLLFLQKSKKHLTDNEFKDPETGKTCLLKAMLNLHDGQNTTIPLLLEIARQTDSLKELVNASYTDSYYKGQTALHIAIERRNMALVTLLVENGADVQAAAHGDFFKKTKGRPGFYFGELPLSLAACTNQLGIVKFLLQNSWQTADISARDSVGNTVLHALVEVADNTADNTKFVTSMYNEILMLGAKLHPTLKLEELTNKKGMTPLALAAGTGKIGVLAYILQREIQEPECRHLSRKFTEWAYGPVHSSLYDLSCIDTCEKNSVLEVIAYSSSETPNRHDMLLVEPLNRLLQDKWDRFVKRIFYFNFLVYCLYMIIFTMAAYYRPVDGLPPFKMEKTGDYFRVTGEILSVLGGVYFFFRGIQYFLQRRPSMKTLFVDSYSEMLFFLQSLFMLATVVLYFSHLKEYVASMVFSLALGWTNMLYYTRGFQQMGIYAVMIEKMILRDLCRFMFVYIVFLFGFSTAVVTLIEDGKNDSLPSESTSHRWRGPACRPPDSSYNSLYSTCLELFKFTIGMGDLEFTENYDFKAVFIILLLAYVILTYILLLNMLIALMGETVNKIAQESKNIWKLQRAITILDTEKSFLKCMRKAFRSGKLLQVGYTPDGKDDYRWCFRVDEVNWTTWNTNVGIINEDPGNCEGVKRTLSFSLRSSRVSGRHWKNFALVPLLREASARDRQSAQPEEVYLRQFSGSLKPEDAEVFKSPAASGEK

Test [2] deals with T1, human TRPV1. As to the kind of experiment: pH-based assay, Protocol 2, TRPV1/CHO cells (hpH-CHO), Fura-2 Ca2+ influx. In kind it is cell-based. The conditions noted are these: pH 5.0-5.1 (H2SO4), mean ± SEM. Here is the method:
For Protocol 2, a Chinese Hamster Ovary cell line (CHO) that has been engineered to constitutively express human recombinant TRPV1 was used (TRPV1/CHO cells). The TRPV1/CHO cell line was generated as described below.
TRPV1/CHO cells were seeded in the 96-well clear-bottom black-wall plate (Nunc) at densities of 1-2×10^4 cells/well and grown in 100 μL of culture medium (alpha-MEM supplemented with 10% FBS, 20 mM HEPES, 1 mg/mL geneticin and 1% antibiotic-antimycotic mixed stock solution) for 1-2 days before the experiment.
(1) Culture medium was removed using an 8-channel-pipette (Rainin, USA) from the 96-well plate and the wells were refilled with 100 μL of loading buffer (20 mM HEPES, 115 mM NaCl, 5.4 mM KCl, 0.8 mM MgCl2, 1.8 mM CaCl2, 13.8 mM D-glucose, 2.5 mM probenecid, pH 7.4) containing 5 μM Fura-2 AM (Dojin, Japan).
(2) The 96-well plate was incubated at 37° C. for 45 min.
(3) The loading buffer was removed from each well. The cells were subsequently washed twice with 150 μL of measuring buffer (20 mM HEPES, 115 mM NaCl, 5.4 mM KCl, 0.8 mM MgCl2, 5.0 mM CaCl2, 13.8 mM D-glucose, 0.1% BSA, pH 7.4) (no probenecid). The wells were then refilled with 80 μL of measuring buffer.
(4) After an incubation at 4° C. for 15 min, the 96-well plate was transferred to a model FDSS-3000 plate reader apparatus (Hamamatsu Photonics K.K., Japan).
(5) The Fura-2 fluorescent intensity was monitored at a wavelength of 340 nm and at 380 nm, respectively, at a rate of 0.5 Hz for a total of 240 seconds. After 16 time points (32 sec) of baseline detection, 20 μL of agonist solution was added to each well. The final volume was 100 μL/well.
(6) Fluorescence intensity ratio refers to the fluorescence intensity at 340 nm over the fluorescence intensity at 380 nm at a particular time point. The baseline was set as the average of the fluorescent intensity ratios for the first 16 time points before the addition of agonist solution. The maximum response was the highest fluorescent intensity ratio during the 60 time points following addition of agonist solution.
(7) Maximal signal ratios from each well were calculated as output data using the FDSS-3000 analysis program. Data were analyzed using Excel (Microsoft) and XLfit (idbs) software.
In an “agonist plate,” two different agonist solutions with different H2SO4 concentrations were used for the pH assay (see, e.g., FIG. 3A of U.S. Patent Application Publication No. US 2009/0170868 A1). For the first half of a 96-well plate one agonist solution was used; for the second half the other agonist solution was used. The agonist solutions were obtained by diluting sulfuric acid (1M H2SO4) with measuring buffer. The concentrations for the two agonist solutions were determined as described above in Section 2 of Protocol 2.
The sulfuric acid concentrations between the two agonist solutions differed by 0.5 mM. In the experiment described in Section 2 of Protocol 2, the sulfuric acid concentrations in the agonist solutions were determined to be 16 mM and 16.5 mM, respectively. After 1:4 dilution of the agonist solutions, the final sulfuric acid concentration was 3.2 mM and 3.3 mM, respectively. The resulting pH value for the pH assay was 5.0 to 5.1.
Test compounds were dissolved in DMSO to yield 1 mM stock solutions. The stock solutions were further diluted using DMSO in […] serial dilution steps with 6 points (1000, 250, 62.5, 15.625, 3.9062, and 0.977 μM). The thereby-obtained solutions were further diluted in measuring buffer (1:100) as 10× stock serial dilutions with a DMSO concentration of 1%. 10 μL of a 10× stock was added into each well of an “antagonist plate” (see step 3.3.(4) below). Thus, the final concentrations of antagonists was as follows: 0.977, 3.906, 15.63, 62.5, 250, and 1000 nM containing 0.1% DMSO (see, e.g., FIG. 3B of U.S. Patent Application Publication No. US 2009/0170868 A1).
Steps (1) and (2) of this Assay were the same as steps 2.2.(1) and 2.2.(2), respectively, of Protocol 2. […]

Each structure is given as a SMILES string.

Regarding `C[C@H](O)[C@@H](O)c1cnc(N2CCN(C(=O)Nc3nc4ccccc4s3)C[C@@H]2C)c(F)c1` [B122(k), (S)—N-(benzo[d]thiazol-2-yl)-4-{5-[(1S,2S)-1,2-dihydroxypropyl]-3-fluoropyridin-2-yl}-3-methylpiperazine-1-carboxamide], the IC50 – broadly, the midpoint of a concentration-inhibition curve – on human TRPV1 [1] was found to be 502 ± 128 nM; on human TRPV1 [2], 2040 ± 245 nM.

Turning to `C[C@@H]1CN(C(=O)Nc2nc3ccccc3s2)CCN1c1ncc([C@@H](O)[C@@H](C)O)cc1F` [B122(o), (R)—N-(benzo[d]thiazol-2-yl)-4-{5-[(1R,2R)-1,2-dihydroxypropyl]-3-fluoropyridin-2-yl}-3-methylpiperazine-1-carboxamide], the IC50 against human TRPV1 [1] turned out to be 199 ± 38 nM; on human TRPV1 [2], 6880 nM.

On to `C[C@@H](O)[C@H](O)c1cnc(N2CCN(C(=O)Nc3nc4ccccc4s3)C[C@@H]2C)c(F)c1` [B122(p), (S)—N-(benzo[d]thiazol-2-yl)-4-{5-[(1R,2R)-1,2-dihydroxypropyl]-3-fluoropyridin-2-yl}-3-methylpiperazine-1-carboxamide], for which the IC50 against human TRPV1 [1] amounted to 506 ± 155 nM; against human TRPV1 [2], 1020 nM.

With `C[C@H](O)[C@@H](O)c1cnc(N2CCN(C(=O)Nc3nc4ccc(F)cc4s3)C[C@H]2C)c(F)c1` [B125(j), (R)-4-{5-[(1S,2S)-1,2-dihydroxypropyl]-3-fluoropyridin-2-yl}-N-(6-fluorobenzo[d]thiazol-2-yl)-3-methylpiperazine-1-carboxamide], the results for the IC50 on human TRPV1 [1] and against human TRPV1 [2] were 194 ± 49 nM and 303 nM, respectively.

With `C[C@@H]1CN(C(=O)Nc2nc3ccc(F)cc3s2)CCN1c1ncc([C@@H](O)[C@@H](C)O)cc1F` [B125(o), (R)-4-{5-[(1R,2R)-1,2-dihydroxypropyl]-3-fluoropyridin-2-yl}-N-(6-fluorobenzo[d]thiazol-2-yl)-3-methylpiperazine-1-carboxamide], the IC50 was determined as 309 ± 105 nM against human TRPV1 [1] and 398 ± 152 nM against human TRPV1 [2].

As to `C[C@@H](O)[C@H](O)c1cnc(N2CCN(C(=O)Nc3nc4ccc(F)cc4s3)C[C@@H]2C)c(F)c1` [B125(p), (S)-4-Z{5-[(1R,2R)-1,2-dihydroxypropyl]-3-fluoropyridin-2-yl}-N-(5-fluorobenzo[d]thiazol-2-yl)-3-methylpiperazine-1-carboxamide], the IC50 came out at 171 ± 1 nM on human TRPV1 [1] and 211 ± 50 nM at human TRPV1 [2].

With `C[C@H](O)[C@@H](O)c1cnc(N2CCN(C(=O)Nc3nc4cc(F)ccc4s3)C[C@H]2C)c(F)c1` [B155(j), (R)-4-{5-[(1S,2S)-1,2-dihydroxypropyl]-3-fluoropyridin-2-yl}-N-(5-fluorobenzo[d]thiazol-2-yl)-3-methylpiperazine-1-carboxamide], the results for the IC50 against human TRPV1 [1] and on human TRPV1 [2] were 344 ± 116 nM and 439 ± 71 nM, respectively.

On to `C[C@@H]1CN(C(=O)Nc2nc3cc(F)ccc3s2)CCN1c1ncc([C@@H](O)[C@@H](C)O)cc1F` [B155(o), (R)-4-{5-[(1R,2R)-1,2-dihydroxypropyl]-3-fluoropyridin-2-yl}-N-(5-fluorobenzo[d]thiazol-2-yl)-3-methylpiperazine-1-carboxamide], for which the IC50 against human TRPV1 [1] is 249 ± 34 nM; against human TRPV1 [2] it was 1230 ± 595 nM.

Take `C[C@@H]1CN(C(=O)Nc2nc3cc(F)c(F)cc3s2)CCN1c1ncc([C@@H](O)[C@@H](C)O)cc1F` [B158(o), (R)—N-(5,6-difluorobenzo[d]thiazol-2-yl)-4-{5-[(1R,2R)-1,2-dihydroxypropyl]-3-fluoropyridin-2-yl}-3-methylpiperazine-1-carboxamide]: the figures for the IC50 at human TRPV1 [1] and against human TRPV1 [2] were 146 ± 52 nM and 171 ± 29 nM, respectively.
